Where two headings read alike, the source gives them in different places.
Assays:
[1] = tested on: HCT116, A549 and NCIH460 murine xenografts; details: cited from earlier work
[2] = in man, cited from earlier work
[3] = molecular target: T1, Plk1-Flag-His6 tag fusion enzyme (Human Plk1) (Homo sapiens, UniProt P53350); test: Plk1 Inhibition Assay; type: biochemical; details: 5.0 μM ATP, GST-Cdc25c (1-206) substrate, 60 min room temperature; MSR 3.6; read-out: Plk1 IC50 (absolute IC50)
T1 construct: made in house; host or cells: Sf9 cells (baculovirus, pFastBac vector)
Text: Human Plk1 cDNA, which may be obtained from a number of sources, such as Incyte (accession number: NM_005030), may be directly linked at one of its termini with a polynucleotide sequence expressing a His6 tag, such as the C-terminal FLAG-His6 tag, and inserted into an appropriate expression vector, such as a pFastBac™ vector (Invitrogen) and transfected into an appropriate system, such as baculovirus similar to what has been reported by Yue-Wei Qian, et al., Science 282, 1701 (1998) for xPlkk1. If a viral expression system is used, then the virus (e.g., baculovirus bearing a Plk1-Flag-His6 tag polynucleotide construct) is infected into a culture of a suitable host cell, such as Sf9 cells. […]
Plk1 kinase reactions contain Plk1-Flag-His6 tag fusion enzyme (0.2 ng/μL) in a buffer containing 50 mM HEPES, pH 7.3, 1.0 mM dithiothreitol, 5.0 μM ATP, 10 mM MgCl2, 0.01% TRITON® X-100, 0.4 μCi ^33P-ATP, and 0.06 μg/μL GST-Cdc25c (1-206) peptide. […] Wells are dried before addition of 40 μL of MicroScint™20 (Packard) and then counted on a Wallac MICROBETA® Jet. The percentage inhibition values from the 10-point concentration response data are subsequently analyzed, for example, using ACTIVITY BASE™ software (IDBS), using a 4-parameter logistic equation. Absolute IC50 values are calculated from the resulting curve fit.

[4] = tested on: HCT116 cells; test: Antiproliferative Assay; type: cell-based; details: Homo sapiens, HCT-116, e.g. 72 hours exposure, Alamar Blue, n=3, MSR 3.1
Protocol: The effects of compounds on cell proliferation can be determined using cells and cell proliferation methods well-known in the art (Robert C. Squatrito et al., Gynecological Oncology, 58, 101-105, (1995)). For example, HCT116 cells, which may be obtained from the American Type Culture Collection, may be seeded at 2000 cells/well in 96-well plates and allowed to attach overnight in a humidified CO2 incubator at 37° C. Following the 20-24 hour incubation, half-log serially diluted compounds are added and the plates are returned to the incubator. After an appropriate length of exposure (e.g., 72 hours), cell proliferation is estimated using well-known methods. In one method, 10 μL of a tetrazolium salt, such as Alamar Blue™ is added to the cell plates. After an appropriate exposure to the dye, fluorescence (530 nm excitation, 580 nm emission) is determined. The resulting IC50 has an MSR of 3.1.

[5] = tested on: HeLa Cells; test: pHH3(S10), Mitotic Cells, and DNA Content Assays; type: cell-based; details: Homo sapiens, 23 hours exposure
Protocol: HeLa Cells from the American Type Culture Collection (ATCC) are plated at 200 cells/well in 96 well […] BIOCOAT™ plates, and are incubated in MEM (Minimum Essential Medium, e.g., GIBCO, catalog #11095) with 10% FBS (Fetal Bovine Serum) in 37° C., 5% CO2 for 24 hours. Cells are treated by adding compound (in 0.25% DMSO) to the medium, dosing at 10 points across the range 0.5 μM to 0.0098 μM. After 23 hours exposure to the compounds, cells are fixed, for example with the PREFER™ fixative [Anatech LTD., Catalog #414] for 30 min then are permeabilized with 0.1% TRITON® X100 in phosphate buffered saline (PBS) solution for 15 min. Cells are washed 3 times with PBS then digested with 50 μg/mL RNAse. Primary antibody, phosphohistone H3 (Upstate Cat#06-570), is added at 1:500 in PBS with 1% bovine serum albumin (BSA) to the cells over night at 4° C. After 3 PBS washes, cells are incubated with Alexa488 labeled secondary antibody (Invitrogen cat #A11008) for 1 hour at room temperature. Again they are washed 3 times with PBS, and then 15 μM propidium iodide (Molecular Probes cat #P3566) is added for 30 min to stain nuclei. Fluorescence Plates are scanned with ACUMEN EXPLORER™ [Laser-scanning fluorescence microplate cytometer (comprising of 488 nm argon ion laser excitation and multiple photomultiplier tube detection), manufactured by TTP LABTECH LTD] to measure phosphohistone H3, DNA content and mitotic cells as measured by DNA condensation. Image analyses are based on cellular fluorescent signals for identifying cells in different subpopulations. pHH3(S10) positive cells are identified by mean intensity at 500-530 nm above the threshold. Total intensity at 655-705 nm from propidium iodide/DNA is used to identify individual cells (cells with DNA content from 2N to 4N) and subpopulations in cell cycle (2N cells, 4N cells). Peak intensity at 575-640 nm is used to identify DNA condensation that is used as the marker to identify mitotic cells among 4N cells. […] The EC50 is determined by curve fitting to a four parameter logistic for each output using ACTIVITY BASE™. […]

T1 sequence (P53350 whole entry, the tested form may be a part): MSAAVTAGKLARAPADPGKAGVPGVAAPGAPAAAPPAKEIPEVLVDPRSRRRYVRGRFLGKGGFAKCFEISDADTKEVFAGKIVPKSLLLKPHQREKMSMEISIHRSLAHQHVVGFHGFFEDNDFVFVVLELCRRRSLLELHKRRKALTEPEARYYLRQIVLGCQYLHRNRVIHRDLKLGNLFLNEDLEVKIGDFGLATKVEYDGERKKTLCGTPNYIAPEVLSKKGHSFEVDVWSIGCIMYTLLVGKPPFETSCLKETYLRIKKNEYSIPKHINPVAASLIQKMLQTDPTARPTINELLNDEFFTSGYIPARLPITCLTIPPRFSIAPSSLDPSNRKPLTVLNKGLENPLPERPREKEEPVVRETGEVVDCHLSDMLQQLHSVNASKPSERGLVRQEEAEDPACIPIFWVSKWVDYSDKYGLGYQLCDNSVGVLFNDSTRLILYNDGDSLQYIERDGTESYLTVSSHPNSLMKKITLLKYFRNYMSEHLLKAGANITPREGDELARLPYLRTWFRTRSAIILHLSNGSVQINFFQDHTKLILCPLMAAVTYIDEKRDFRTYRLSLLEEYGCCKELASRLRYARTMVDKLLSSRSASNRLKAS

IC50 [3] [nM] | IC50 [4] [nM] | EC50 ([5]; n=1, MSR 2.5, read-out: mitotic EC50) [nM] | EC50 ([5]; n=2, MSR 2.4, read-out: DNA content EC50) [nM] | EC50 ([5]; n=2, MSR 2.6, read-out: pHH3(s10) EC50) [nM] | Compound | activity in preclinical xenograft models [1] | clearance (CL) ([2]; phase II clinical trials) [mL/min] | dose-limiting toxicity [2]
 |  |  |  |  | CC[C@@H]1C(=O)N(C)c2cnc(Nc3ccc(C(=O)NC4CCN(C)CC4)cc3OC)nc2N1C1CCCC1 [BI-2536] | demonstrated activity | > 1000 | dose limited by myelosupression
~23 | 11 | 45 | 40 | 42 | O=C1NCCN1CCNc1ncc(Cl)c(-c2cc3cccc(-c4cc(F)ncc4Cl)c3s2)n1 [Example 13, 1-(2-{5-Chloro-4-[7-(5-chloro-2-fluoropyridin-4-yl)-benzo[b]thiophen-2-yl]pyrimidin-2-ylamino}ethyl)imidazolidin-2-one] |  |  | 

From US8101628B2, “Imidazolidinonyl aminopyrimidine compounds for the treatment of cancer” (Eli Lilly and Company, priority 2007, dated 2012)
